According to ChEMBL document CHEMBL1201862, “PubChem BioAssay data set” (2004):
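Five concentrations, 48 hours, 96-well plates. The concentration for 50% growth inhibition is given as GI50.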 Calls of active or inactive are those of the source. Rule as the data show it: active = GI50 up to about 1.1 µM and inactive = higher.

Columns and labels:
Experiment in all cases: NCI tumour cell line growth inhibition, 48 h
MDA-N = system: MDA-N
UACC-257 = system: UACC-257
IGROV-1 = system: IGROV-1
LOX IMVI = system: LOX IMVI
SN12C = system: SN12C
HCC 2998 = system: HCC 2998
A498 = system: A498
OVCAR-8 = system: OVCAR-8
OVCAR-5 = system: OVCAR-5
OVCAR-3 = system: OVCAR-3
U-251 = system: U-251
Malme-3M = system: Malme-3M
SNB-75 = system: SNB-75
UACC-62 = system: UACC-62
T47D = system: T47D
MDA-MB-231 = system: MDA-MB-231
MOLT-4 = system: MOLT-4
SR = system: SR
NCI-H460 = system: NCI-H460
SF-268 = system: SF-268

SMILES | GI50 (MDA-N) | GI50 (UACC-257) | GI50 (IGROV-1) | GI50 (LOX IMVI) | GI50 (SN12C) | GI50 (HCC 2998) | GI50 (A498) | GI50 (OVCAR-8) | GI50 (OVCAR-5) | GI50 (OVCAR-3) | GI50 (U-251) | GI50 (Malme-3M) | GI50 (SNB-75) | GI50 (UACC-62) | GI50 (T47D) | GI50 (MDA-MB-231) | GI50 (MOLT-4) | GI50 (SR) | GI50 (NCI-H460) | GI50 (SF-268)
NNC(=O)Nc1cccnc1 | > 100 µM (inactive) | > 100 µM (inactive) | > 100 µM (inactive) | > 100 µM (inactive) | > 100 µM (inactive) | > 100 µM (inactive) | > 100 µM (inactive) | > 100 µM (inactive) | > 100 µM (inactive) | > 100 µM (inactive) | > 100 µM (inactive) | > 100 µM (inactive) | > 100 µM (inactive) | > 100 µM (inactive) | > 100 µM (inactive) | > 100 µM (inactive) | > 10 µM (inactive) |  |  | 
COC(=O)C1=CC(=O)OC1(OO)c1ccccc1 (stereo not given) | > 100 µM (inactive) | > 100 µM (inactive) | > 100 µM (inactive) | 94.8 µM (inactive) | > 100 µM (inactive) | > 100 µM (inactive) |  | > 100 µM (inactive) | > 100 µM (inactive) | > 100 µM (inactive) | > 100 µM (inactive) | 28.3 µM (inactive) | 92.3 µM (inactive) | > 100 µM (inactive) | > 100 µM (inactive) | > 100 µM (inactive) | 62.2 µM (inactive) | 42.1 µM (inactive) | > 100 µM (inactive) | 
Cc1ccc(/N=N\c2c(O)ccc3cc(S(=O)(=O)O)ccc23)cc1 | > 100 µM (inactive) | > 100 µM (inactive) | > 80.2 µM (inactive) | > 100 µM (inactive) | > 100 µM (inactive) | > 100 µM (inactive) | > 100 µM (inactive) | > 100 µM (inactive) | > 100 µM (inactive) | > 100 µM (inactive) | > 100 µM (inactive) | > 100 µM (inactive) | > 100 µM (inactive) | > 100 µM (inactive) | > 100 µM (inactive) | > 100 µM (inactive) | > 100 µM (inactive) |  | > 100 µM (inactive) | > 100 µM (inactive)
Oc1ccc(Br)cc1/C=N/C1CCCCC1 | 34.8 µM (inactive) | 47.2 µM (inactive) | 24.1 µM (inactive) | 13.3 µM (inactive) | < 0.01 µM (active) | 25.5 µM (inactive) | > 100 µM (inactive) | 20.5 µM (inactive) | > 100 µM (inactive) | 13.1 µM (inactive) | 12.4 µM (inactive) | 27.6 µM (inactive) |  | 32 µM (inactive) | 4.12 µM (inactive) | 36.3 µM (inactive) | 18.8 µM (inactive) |  | 71.4 µM (inactive) | 10.6 µM (inactive)
Cc1cccc(N2C(=O)C3c4[nH]c5ccccc5c4C4CCC(C(C)(C)C)CC4C3C2=O)c1 (stereo not given) | 15.3 µM (inactive) | 18.7 µM (inactive) | 4.13 µM (inactive) | 3.32 µM (inactive) | 14.2 µM (inactive) |  | 13.1 µM (inactive) | 3.5 µM (inactive) | 16.8 µM (inactive) | 14 µM (inactive) | 17.3 µM (inactive) | 13 µM (inactive) |  | 19.5 µM (inactive) | 26.5 µM (inactive) | 9.53 µM (inactive) | 8.83 µM (inactive) |  | 6.19 µM (inactive) | 4.27 µM (inactive)
CSc1ccc(C=C2N=C(c3ccccc3)N(c3cc(C(=O)c4ccccc4)ccc3N3C(=O)/C(=C/c4ccc(SC)cc4)N=C3c3ccccc3)C2=O)cc1 | 93.1 µM (inactive) | 89.9 µM (inactive) | 81.3 µM (inactive) | 32.1 µM (inactive) | 76.6 µM (inactive) | 46 µM (inactive) | 71.8 µM (inactive) | 39.4 µM (inactive) | > 100 µM (inactive) | 22.2 µM (inactive) | 27 µM (inactive) |  | 16 µM (inactive) | 44.9 µM (inactive) | 34.5 µM (inactive) | 80.5 µM (inactive) | 23.7 µM (inactive) |  | 51.2 µM (inactive) | 53.2 µM (inactive)
COC(=O)c1ccccc1/C=C1\Cc2c(ccc3c2CCC3)C1=O | > 100 µM (inactive) | > 100 µM (inactive) | > 100 µM (inactive) | > 100 µM (inactive) | > 100 µM (inactive) | > 100 µM (inactive) | > 100 µM (inactive) | 78.9 µM (inactive) | > 100 µM (inactive) | > 100 µM (inactive) | 68.4 µM (inactive) | > 100 µM (inactive) | 39.1 µM (inactive) | > 100 µM (inactive) | > 100 µM (inactive) |  | > 100 µM (inactive) | > 100 µM (inactive) | > 100 µM (inactive) | > 100 µM (inactive)
CN1C(=O)c2c(c3c4ccccc4n(C4OC(CO)C(O)C(O)C4O)c3c3[nH]c4ccccc4c23)C1=O (stereo not given) | 2.14 µM (inactive) | 2.49 µM (inactive) | 0.9 µM (active) | 1.2 µM (inactive) | 2.82 µM (inactive) | 2.07 µM (inactive) | 1.45 µM (inactive) | 1.42 µM (inactive) | 3.22 µM (inactive) | 2.02 µM (inactive) | 0.681 µM (active) | 0.194 µM (active) | 3.95 µM (inactive) | 1.46 µM (inactive) |  | 1.51 µM (inactive) | 0.624 µM (active) | 0.164 µM (active) | 3.1 µM (inactive) | 0.541 µM (active)
